Results reported in patent US20230381192A1, “METHODS FOR CONTROLLING AND PREDICTING RECOVERY AFTER NMBA ADMINISTRATION” (Cornell University, priority 2020, published 2023).

Legend:
[1] = in vivo; cited from earlier work
dogs = details: very high doses (27 and 54×ED95); cited from earlier work
Healthy volunteers [2] = assay: Phase I safety and tolerability in humans; format: in vivo, human
Description: (§1) (Abstract available in the final supplement of the Journal of Anesthesia and Analgesia, May 2020 (Volume 30, Issue pages 73-74), which is incorporated herein by reference. Healthy volunteers (n=34) aged 18 to 55 of either gender gave informed consent to an 1RB-approved Phase I protocol, NMB was measured by mechanomyography during sevoflurane (0.5 MAC)/N20 (70%) anesthesia. Each volunteer received a single IV bolus of RP1000,

monkeys = details: cited from earlier work
cats = details: cited from earlier work
Rhesus monkeys = assay: Spontaneous recovery from NMB (twitch 5% to 95% of baseline) after bolus or infusion in Rhesus monkeys under isoflurane; format: in vivo, Rhesus monkey; details: for 5%-95% Interval: mean ± SD
Description: Rhesus monkeys under isoflurane anesthesia were administered a bolus dose of either RP2000 or RP1000 at a dose equal to 1× to 10× the ED95 in Rhesus monkeys of the administered compound (ED95,Rp1000=0.040 mg/kg; ED95,RP2000=0.053 mg/kg). Twitch (0.15 Hz) and TOF (2 Hz×2 seconds) were recorded throughout the 6 -10 hours experiments. Time to spontaneous recovery after bolus administration, characterized by recovery of twitch from 5% to 95% of baseline was measured.
Separately, continuous infusions of 20-180 minutes duration were given (to separate subjects), and after discontinuation of infusion, time to spontaneous recovery of NMB, characterized by recovery of twitch from 5% to 95% of baseline was measured.

[3] = preclinical studies; cited from earlier work
Healthy volunteers [4] = assay: Phase I: NMB measured by mechanomyography (twitch T1, TOFR) in healthy volunteers under sevoflurane/N2O; format: in vivo, human; details: for mean time to 95% T1 recovery: spontaneous recovery
Excerpt: Twitch Height: A peripheral nerve stimulator that applies supramaximal. stimuli to the ulnar nerve at the wrist via surface electrodes was used for neuromuscular monitoring. Following anesthesia induction, single twitch stimuli (0.10 Hz) may be delivered continuously during a 15- to 20- minute period to establish baseline twitch height. Single twitch may continue during and following NMBA administration.
Train-of-Four twitch stimulation pattern ratio (TOFR): The TOP delivers 4 supramaximal electrical impulses that involve four equally strong twitches of the stimulated muscle. A fade of the twitches appears when the neuromuscular blockade increases. Comparison of the fourth twitch (T4) to the first twitch (T1) provides the TOFR.
as §1
An ED95 dose of 0.08 mg/kg was established under sevoflurane anesthesia and a dose of 0.14 mg/kg led to 100% twitch suppression in all subjects. At doses below 0,08 mg/kg, (n=18) 100% twitch inhibition occurred in NONE of the volunteers. […] volunteers, however, who were given doses of 0.08, 0.10, or 0.14 mg/kg, developed 100% block: (n=2 of 6 at 0.08, 6 of 6 at 0.10, and 4 of 4 at 0,14 mg/kg).
During spontaneous recovery from 100% block, in all volunteers, TOE stimulation was applied to the ulnar nerve every 20 seconds and the response of the thumb was monitored continuously until T1 of TOE had recovered to 95% of baseline and TOFR had reached 0.90. The total duration of block was calculated from injection to recovery of T1 to 95 percent of baseline and to recovery of TOFR to 0.90. The 5-95% recovery intervals during recovery from 100% block were measured, Following the completion of data acquisition for all dosage groups, a comparison was made by ANOVA of the 5-95% recovery times resulting after doses of 0.08, 0.10 and 0.14 mg/kg. Recovery data in the 12 volunteers who developed 100% block were then combined to show a single composite recovery pattern. ANOVA was again done to compare the recovery data (5-95% intervals) for the composite group to the corresponding intervals for the separate dosage groups of 0.08, 0.10, and 0,14 mg/kg.

[5] = human, Composite of 0.08, 0.10, 0.14 mg/kg groups (n=12)
[6] = human, dose 0.08 mg/kg, recovery from 100% block
[7] = human, dose 0.1 mg/kg, recovery from 100% block
[8] = human, dose 0.14 mg/kg, recovery from 100% block
[9] = human, doses ≥ED95, approximately

COc1ccc(C[C@@H]2c3cc(OC)c(OC)cc3CC[N@@+]2(C)CCCOC(=O)/C=C/C(=O)OCCC[N@+]2(C)CCc3cc(OC)c(OC)cc3[C@H]2Cc2ccc(OC)c(OC)c2)cc1OC.[Cl-].[Cl-] [RP1000]
potential for bronchoconstrictive activity or histamine release [1]: low potential | decrease in mean arterial pressure (dogs): 20% | increase in heart rate (dogs): 20% | tolerability (Healthy volunteers [2]; healthy volunteers, 0.02 mg/kg to 0.14 mg/kg): generally well-tolerated | cardiopulmonary side effects (Healthy volunteers [2]; humans, doses up to 0.14 mg/kg): did not result in significant cardiopulmonary side effects | signs of histamine release (Healthy volunteers [2]; humans, doses up to 0.14 mg/kg): nor any signs of histamine release | effects on autonomic or circulatory systems (monkeys): no observed ill-elects on autonomic or circulatory systems | effects on autonomic or circulatory systems (cats): no observed ill-elects on autonomic or circulatory systems | ED95 in Rhesus monkeys (Rhesus monkeys; Rhesus monkeys, isoflurane anesthesia): 0.040 mg/kg | 5%-95% Interval (Rhesus monkeys; after continuous infusion of 20-180 minutes): 13.1 ± 3.7 min | 5%-95% Interval (Rhesus monkeys; bolus dose 0.05 mg/kg): 15.3 ± 7.5 min | 5%-95% Interval (Rhesus monkeys; bolus dose 0.10 mg/kg): 14.3 ± 6.5 min | 5%-95% Interval (Rhesus monkeys; bolus dose 0.20 mg/kg): 13.3 ± 4.4 min | 5%-95% Interval (Rhesus monkeys; bolus dose 0.40 mg/kg): 15.5 ± 5.1 min | time to 100% NMB after administration [3]: ≤ 90 s | Time to maximum T1 recovery (Healthy volunteers [4]; human, 0.08 mg/kg): about 50 minutes | mean time to T4:T1>0.9 (Healthy volunteers [4]; human, 0.08 mg/kg): about 50 minutes | volunteers who developed 100% block (Healthy volunteers [4]; human, 0.08 mg/kg): 2 of 6 | Time to maximum T1 recovery (Healthy volunteers [4]; human, 0.10 mg/kg): about 70 minutes | mean time to T4:T1>0.9 (Healthy volunteers [4]; human, 0.10 mg/kg): about 70 minutes | volunteers who developed 100% block (Healthy volunteers [4]; human, 0.10 mg/kg): 6 of 6 | mean time from 5% to 95% T1 recovery (Healthy volunteers [4]; human, 0.1 mg/kg and 0.145 mg/kg doses): 35 to 40 min | Time to maximum T1 recovery (Healthy volunteers [4]; human, 0.14 mg/kg): about 70 minutes | mean time to T4:T1>0.9 (Healthy volunteers [4]; human, 0.14 mg/kg): ~80 min | volunteers who developed 100% block (Healthy volunteers [4]; human, 0.14 mg/kg): 4 of 4 | Recovery Time, Recovery Interval 5%-95% (Healthy volunteers [4]; [5]): 37.4 ± 6.4 min | Recovery Time, Recovery Interval 25%-75% (Healthy volunteers [4]; [5]): 14.9 ± 3.0 min | Recovery Time, Recovery Interval 5%-95% (Healthy volunteers [4]; [6]): 34.8 ± 12.5 min | Recovery Time, Recovery Interval 25%-75% (Healthy volunteers [4]; [6]): 15.7 ± 8.4 min | Recovery Time, Recovery Interval 5%-95% (Healthy volunteers [4]; [7]): 39.4 ± 6.5 min | Recovery Time, Recovery Interval 25%-75% (Healthy volunteers [4]; [7]): 15.1 ± 2.0 min | Recovery Time, Recovery Interval 5%-95% (Healthy volunteers [4]; [8]): 35.6 ± 3.1 min | Recovery Time, Recovery Interval 25%-75% (Healthy volunteers [4]; [8]): 14.2 ± 0.9 min | twitch suppression (Healthy volunteers [4]; human, dose of 0.14 mg/kg, in all subjects): 100% | volunteers in whom 100% twitch inhibition occurred (Healthy volunteers [4]; human, doses below 0.08 mg/kg (n=18)): NONE | volunteers who developed 100% block (Healthy volunteers [4]; human, doses of 0.08, 0.10, or 0.14 mg/kg pooled): 12 of 14 | time to 95% T1 suppression (Healthy volunteers [4]; [9]): 2 to 3 min | time to maximum T1 suppression (Healthy volunteers [4]; [9]): 3 to 5 min | duration of NMB effect (Healthy volunteers [4]; human, injection): intermediate duration | onset of action (Healthy volunteers [4]; human, injection): rapid onset of action | mean time to 95% T1 recovery (Healthy volunteers [4]; human, 0.08 mg/kg): approximately 45 minutes | mean time to 95% T1 recovery (Healthy volunteers [4]; human, 0.10 mg/kg): ~55 min | mean time to 95% T1 recovery (Healthy volunteers [4]; human, 0.14 mg/kg): ~60 min | ED95 dose (Healthy volunteers [4]; human, under sevoflurane anesthesia): 0.08 mg/kg | ED 95 for humans (Healthy volunteers [4]; humans): about 0.077 mg/kg
